Data on seven compounds can be found in PMC9194530, “Interaction of Colchicine-Site Ligands With the Blood Cell-Specific Isotype of β-Tubulin—Notable Affinity for Benzimidazoles” (Frontiers in Cell and Developmental Biology, 2022).

Assay [1] deals with T1, Brain tubulin (BTb), colchicine site (Bos taurus, UniProt Q6B856).
T1 construct: from tissue; host or cells: mammalian brain: either rat brain (purified in house) or bovine brain (bought from Cytoskeleton #HTS02-A or Sigma-Aldrich #T4925)
The assay can be described thus: Competition titration with MDL (fluorescence), brain tubulin. It is filed as binding, bovine or rat.

Assay [2] concerns the target Erythrocyte tubulin (CeTb), colchicine site (Gallus gallus, UniProt P09207). The assay can be described thus: biochemical. It is filed as binding, chicken (Gallus gallus).
A further assay has as its target T2, BTb, colchicine site (Bos taurus, UniProt Q6B856).
T2 construct: from tissue; host or cells: mammalian brain: either rat brain (purified in house) or bovine brain (bought from Cytoskeleton #HTS02-A or Sigma-Aldrich #T4925)
Nature of the assay: Single-point MDL competitive binding inhibition screen, brain tubulin. Also noted: species or system bovine or rat. As to conditions: for inhibition at 50 µM: read-out: BTb % (inhibition of MDL binding).

The target in the next assay is CeTb, colchicine site (Gallus gallus, UniProt P09207). Nature of the assay: Single-point MDL competitive binding inhibition screen, erythrocyte tubulin. Further details: species or system chicken (Gallus gallus). As to conditions: for Kd: from single-point data (50 µM drug) fitted with single-site isotherm, Eq. 4, read-out: CeTb Kd(app).
Assay [3] concerns the target T3, bovine brain microtubule protein (tubulin plus microtubule-associated proteins) (Bos taurus, UniProt Q6B856).
T3 construct: from tissue; host or cells: bovine brain; microtubule protein purified by the method of Williams and Lee, 1982
Nature of the assay: GTP-induced polymerization of bovine brain microtubule protein (turbidity at 350 nm). As to conditions: albendazole 12-60 µM, 15 µM microtubule protein, 1 mM GTP, 37 °C, 2% DMSO. It is filed as biochemical. The method, then:
albendazole (ABZ). 15 µM bovine brain microtubule protein (tubulin plus microtubule-associated proteins, purified according to (Williams and Lee, 1982), in PME buffer was incubated with varying concentrations of albendazole for 40 min at room temperature.
The samples were equilibrated to 37 °C in the cell holder of a UV-Vis spectrophotometer (HP8453, Hewlett Packard, Palo Alto, CA). A baseline was recorded before adding GTP to a concentration of 1 mM to induce microtubule assembly. All samples had 2% (v/v) DMSO. The extent of polymerization was determined by the increase of turbidity as measured by the apparent absorbance at 350 nm.

The target in another assay is BBTb. Further details: method as in Lin et al., 1989. The settings on record: read-out: Kd combretastatin A4, literature value; ref Lin et al., 1989; cited from earlier work.
Another assay has as its target T4, Brain tubulin (BTb) (Bos taurus, UniProt Q6B856).
T4 construct: from tissue; host or cells: mammalian brain: either rat brain (purified in house) or bovine brain (bought from Cytoskeleton #HTS02-A or Sigma-Aldrich #T4925)
The assay can be described thus: Inhibition of taxol-induced tubulin polymerization (absorbance at 350 nm), brain tubulin. It is filed as biochemical, bovine or rat. As to conditions: tubulin 2 µM, taxol 2 µM, drugs 20 µM; polymerization with taxol alone = 100%. The method, then:
(§1) Tubulin was polymerized at a concentration of 2 µM in PM buffer (0.1 M Pipes pH 7, 1 mM MgCl2) + 0.1 mM GTP in a volume of 60 µL. The reaction mixture was transferred to a 10-mm pathlength microcuvette (Hellma United States Inc., Plainview, NY) and placed in the cuvette holder of a SpectraMax M2 Multimode Microplate Reader (Molecular Devices, San Jose, CA) equipped with temperature control set at 37°C for these experiments. Drugs at 20 µM were added directly to the polymerization mixture and incubated for 15 min previous to starting the recordings. Tubulin polymerization kinetics was followed by recording the absorbance at 350 nm. After recording the baseline, tubulin polymerization was induced by the addition of 2 µM paclitaxel (taxol). The final concentration of DMSO in the mixtures was 4%–5% v/v.
(§2) FIGURE 2 Inhibition of tubulin polymerization by colchicine-site drugs. Tubulin from brain (A) or from erythrocytes (B) was incubated at 2 µM in polymerization buffer at 37°C, and the absorbance at 350 nm was registered for 10 min prior to starting the polymerization by the addition of taxol 2 µM (arrow). Drugs were included in polymerization buffer and used at a concentration of 20 µM.

The target in assay [4] is Erythrocyte tubulin (CeTb) (Gallus gallus, UniProt P09207). Nature of the assay: Inhibition of taxol-induced tubulin polymerization (absorbance at 350 nm), erythrocyte tubulin. It is filed as biochemical, chicken (Gallus gallus). The procedure: as §1, §2
For assay [5], the target named is Chicken brain tubulin (CBTb). The assay can be described thus: MDL fluorescence dilution titration, chicken brain tubulin. The settings on record: 1 µM tubulin, PM buffer, 5% DMSO, 25°C; ± standard error of fit. It is filed as binding.
A further assay has as its target T5, Rat brain tubulin (RBTb) (Rattus norvegicus, UniProt Q3KRE8).
T5 construct: Rat brain tubulin was purified from microtubule protein previously extracted from frozen rat brains; from tissue; host or cells: frozen rat brains; tubulin purified in house from microtubule protein
Nature of the assay: MDL fluorescence dilution titration, rat brain tubulin. It is filed as binding. The settings on record: 1 µM tubulin, PM buffer, 5% DMSO, 25°C; ± standard error of fit.

The target in assay [6] is T6, Bovine brain tubulin (BBTb) (Bos taurus, UniProt Q6B856).
T6 construct: purchased Cytoskeleton, Inc. or Sigma-Aldrich #HTS02-A or #T4925; host or cells: bovine brain
The assay can be described thus: MDL fluorescence dilution titration, bovine brain tubulin. It is filed as binding. The settings on record: 1 µM tubulin, PM buffer, 5% DMSO, 25°C; ± standard error of fit.

For assay [7], the target named is Chicken erythrocyte tubulin (CeTb) (Gallus gallus, UniProt P09207). Nature of the assay: MDL fluorescence dilution titration, chicken erythrocyte tubulin. It is filed as binding.
In another assay the target is BTb. Further details: method as in Head et al., 1985. As to conditions: read-out: Kd nocodazole, published value; ref Head et al., 1985; cited from earlier work.
For the next assay, the target named is rat brain tubulin. Further details: method as in Cortese et al., 1977. As to conditions: tritiated podophyllotoxin, ref Cortese et al., 1977, read-out: Kd podophyllotoxin, literature value; cited from earlier work.
[8] abbreviates: competition titration, 1 µM tubulin, 5 µM MDL, calculated with Equation 4, nb = no binding detected.
[9] abbreviates: competition titration, 1 µM tubulin, 5 µM MDL, nb = no binding detected.
[10] abbreviates: competition titration, 1 µM tubulin, 5 µM MDL.
Setting [11] is: competition titration, 1 µM tubulin, 5 µM MDL, calculated with Equation 4, read-out: Erythrocyte tubulin (CeTb) Kd.
The mark [12] stands for this setting: summary of competition titrations with MDL, read-out: Erythrocyte tubulin (CeTb) Kd (Table 4, selected drugs).
The mark [13] stands for this setting: 50 µM drug, 1 µM tubulin, 5 µM MDL, single point.
Where [14] appears, read: tubulin 2 µM, taxol 2 µM, drugs 20 µM, polymerization with taxol alone = 100%.

The structures appear in SMILES notation. Where two headings read alike, the source gives them in different places.

As for `CCCSc1ccc2nc(NC(=O)OC)[nH]c2c1` [Albendazole], the “Brain tubulin (BTb) Kd” value is “nb” in [1] (setting [8]) and “no detectable binding” in assay [1] (competition titration, 1 µM tubulin, 5 µM MDL, calculated with Equation 4, nb = no binding detected, listed as albendazole). The “Brain tubulin (BTb) IC50” value in assay [1] (setting [9]) is listed as “nb”. Besides, the IC50 (usually the concentration at which inhibition is half-maximal) in assay [2] (setting [10]) stood at 104 ± 12 µM. For the same compound, the Kd is 35 ± 4 µM in assay [2] (setting [11]); 35 µM in assay [2] (setting [12]); 31 µM on CeTb, colchicine site. At BTb, colchicine site, the “BTb % (inhibition of MDL binding)” value is less than 1%. Also, at CeTb, colchicine site (setting [13]), the “CeTb % (inhibition of MDL binding)” value was 35%. The results for the “inhibition of polymerization of BTb” value in [3] and in assay [3] (listed as albendazole (ABZ)) were “little or no inhibition” and “not significantly inhibited”, respectively.
With `COc1ccc(/C=C\c2cc(OC)c(OC)c(OC)c2)cc1O` [Combretastatin A4, cis-Combretastatin A4], the inhibition – broadly, the change of the read-out against control, counted positive when it falls – at 50 µM on BTb, colchicine site is 92%. In addition, the “CeTb % (inhibition of MDL binding)” value at CeTb, colchicine site came out at 64%. For the same compound, the Kd at BBTb was 0.12 µM.
With `COc1ccc(OC)c(C(=O)/C(C)=C/c2ccc(N(C)C)cc2)c1` [MDL, (E)-1-(2,5-dimethoxyphenyl)-3-[4-(dimethylamino)phenyl]-2-methylprop-2-en-1-one], the “Brain tubulin (BTb) % inhibition at 60 min” value on Brain tubulin (BTb) is recorded as 64%. Also, the “Erythrocyte tubulin (CeTb) % inhibition at 30 min” value in assay [4] (setting [14]) was 38%. Further, the Kd in assay [5] amounted to 0.51 ± 0.079 µM; at Rat brain tubulin (RBTb), 0.45 ± 0.046 µM; in [6], 0.54 ± 0.082 µM; in assay [7] (1 µM tubulin, PM buffer, 5% DMSO, 25°C, ± standard error of fit, read-out: Kd,MDL, chicken erythrocytes (CeTb)), 2.6 ± 0.24 µM. Moreover, the “MDL affinity for CeTb, fold weaker than to brain tubulins” value in [7] (direct MDL titration) is approximately 5 fold. The “Ratio: Kd of MDL and CeTb divided by Kd of MDL and BBTb” value in assay [7] (direct MDL titration) is 5.
`COC(=O)Nc1nc2ccc(C(=O)c3ccccc3)cc2[nH]1` [Mebendazole]: on Brain tubulin (BTb), the “Brain tubulin (BTb) % inhibition at 60 min” value came to 92%. Further, the “Erythrocyte tubulin (CeTb) % inhibition at 30 min” value in assay [4] (setting [14]) is recorded as 25%. Moreover, the Kd in [1] (competition titration, 1 µM tubulin, 5 µM MDL, calculated with Equation 4, nb = no binding detected, read-out: Brain tubulin (BTb) Kd) is 1.3 ± 0.23 µM; in assay [2] (setting [11]), 2.3 ± 0.25 µM; in [2] (setting [12]), 2.6 µM; on BTb, colchicine site (from single-point data (50 µM drug) fitted with single-site isotherm, Eq. 4, read-out: BTb Kd(app)) it was 1 µM; on CeTb, colchicine site it was 1.8 µM. Also, the IC50 in assay [1] (competition titration, 1 µM tubulin, 5 µM MDL, nb = no binding detected, read-out: Brain tubulin (BTb) IC50) came out at 14 ± 2.5 µM; in assay [2] (setting [10]) it was 6.8 ± 0.73 µM. Also, the “Ratio: Kd of the drug and CeTb divided by the Kd of the drug and BBTb” value in assay [2] (ratio >1 = weaker binding to CeTb) was determined as 1.9. The inhibition at 50 µM at BTb, colchicine site (setting [13]) amounted to 82%. Moreover, the “CeTb % (inhibition of MDL binding)” value on CeTb, colchicine site (setting [13]) is reported as 90%.
As to `COC(=O)Nc1nc2ccc(C(=O)c3cccs3)cc2[nH]1` [Nocodazole], the “Brain tubulin (BTb) % inhibition at 60 min” value at Brain tubulin (BTb) was found to be 55%. For the same compound, the “Erythrocyte tubulin (CeTb) % inhibition at 30 min” value in [4] stood at 90%. Moreover, at BTb, colchicine site, the inhibition at 50 µM turned out to be 85%. Moreover, at CeTb, colchicine site, the “CeTb % (inhibition of MDL binding)” value turned out to be 96%. Also, the Kd at BTb was 2.5 µM.
With `CCCOc1ccc2nc(NC(=O)OC)[nH]c2c1` [Oxibendazole], the “Brain tubulin (BTb) Kd” value in assay [1] (setting [8]) was “nb”; in assay [1] (competition titration, 1 µM tubulin, 5 µM MDL, calculated with Equation 4, nb = no binding detected, listed as oxibendazole) it was “no detectable binding”. In addition, the “Brain tubulin (BTb) IC50” value in assay [1] (setting [9]) was “nb”. The compound further registered an IC50 in [2] (setting [10]) of 36 ± 5.6 µM. The Kd was 12 ± 1.9 µM in [2] (setting [11]); 12 µM in [2] (setting [12]); 13 µM at CeTb, colchicine site. In addition, the “BTb % (inhibition of MDL binding)” value on BTb, colchicine site (setting [13]) is listed as less than 1%; on BTb, colchicine site (50 µM drug, 1 µM tubulin, 5 µM MDL, single point, listed as oxibendazole), less than 10%. Further, the “CeTb % (inhibition of MDL binding)” value on CeTb, colchicine site (setting [13]) amounted to 56%.
In the case of `COc1cc([C@@H]2c3cc4c(cc3[C@H](O)[C@H]3COC(=O)[C@H]23)OCO4)cc(OC)c1OC` [Podophyllotoxin], the “Brain tubulin (BTb) % inhibition at 60 min” value on Brain tubulin (BTb) is recorded as 90%. Also, the “Erythrocyte tubulin (CeTb) % inhibition at 30 min” value in [4] (setting [14]) is reported as 95%. Also, the IC50 amounted to 4 ± 1 µM in [1] and 15 ± 0.53 µM in assay [2] (setting [10]). Also, the Kd is 0.37 ± 0.035 µM in [1] (Brain tubulin (BTb) Kd); 0.37 µM in assay [1] (Brain tubulin (BTb) Kd (Table 4, selected drugs)); 4.9 ± 0.18 µM in assay [2] (setting [11]); 4.9 µM in assay [2] (setting [12]); 0.73 µM at BTb, colchicine site; 0.55 µM on rat brain tubulin. Further, the “Ratio: Kd of the drug and CeTb divided by the Kd of the drug and BBTb” value in assay [2] is listed as 13. The inhibition at 50 µM on BTb, colchicine site was 90%; at CeTb, colchicine site (50 µM drug, 1 µM tubulin, 5 µM MDL, single point, read-out: CeTb % (inhibition of MDL binding)), 81%.
